Consider one molecule from publication PMC8889550 (JACS Au, 2022).

The target in the experiment is T1, horseradish peroxidase (HRP) (Armoracia rusticana, UniProt P00433).
T1 sequence (P00433 31-338): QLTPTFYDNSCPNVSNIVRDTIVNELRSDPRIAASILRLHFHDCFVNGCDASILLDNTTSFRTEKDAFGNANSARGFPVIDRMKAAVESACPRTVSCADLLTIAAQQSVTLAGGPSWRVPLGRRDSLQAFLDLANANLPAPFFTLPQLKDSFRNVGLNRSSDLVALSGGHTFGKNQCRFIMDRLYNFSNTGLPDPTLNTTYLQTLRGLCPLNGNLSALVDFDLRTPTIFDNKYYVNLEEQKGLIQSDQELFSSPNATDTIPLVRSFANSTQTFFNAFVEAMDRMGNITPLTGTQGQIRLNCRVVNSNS
In words: coupled GOx/HRP cascade, Resorufin formation in plate reader. Type of experiment: biochemical. The note with it: 200 μM Amplex Red; H2O2 generated by GOx from glucose; DNA-functionalized enzyme.

On to `CC(=O)N1c2ccc(O)cc2Oc2cc(O)ccc21` [Amplex Red], for which the “coupled GOx/HRP cascade, Resorufin formation in plate reader” value is “Amplex Red → Resorufin catalyzed by HRP”.
